Reference: US20230303577A1, “TEMOZOLOMIDE ANALOGS AND METHODS OF USE” (St. John's Cancer Institute, priority 2020, published 2023)
pIC50: −log10 of the molar value. Like-named read-outs stand apart in the source and are kept apart here.

Key:
[1] = system: P-gp; assay: Bidirectional Caco-2 permeability / P-gp efflux assay; assay type: in vitro ADME; conditions: human
Description: (§1) Permeability of the compounds was evaluated in the bidirectional Caco-2 assay including identification of P-glycoprotein substrate (Pgp-mediated transport). Verapamil was used as a p-gp inhibitor. The apparent permeability (Papp) was calculated using the following equation:
(§2) Papp=VA/Area×Time×[drug]acc/[drug]initial,d
(§3) Permeability of the compounds was evaluated in the bidirectional Caco-2 assay as described in Example 11 (Table 15).

[2] = system: Caco-2; assay: as above; assay type: in vitro ADME; conditions: human, Caco-2
Description: as §1, §2, §3

[3] = system: T98G cells; assay: Cell Titer Glo viability of T98G cells with or without O6-BG pretreatment; assay type: cell-based
Description: T98G cells, which express MGMT, were treated with TMZ or test compounds with or without 3, 6, or 24 hours of pretreatment with 100 μM of O^6-benzylguanine (O^6-BG; a pseudo-substrate of MGMT that quenches the cellular store of enzyme). T98G cell lysates were probed with anti-MGMT antibody and then with anti-a tubulin (FIG. 4). In a separate experiment, TMZ or test compounds were added to T98G cells with or without 5-6 hours of pretreatment with 100 μM O^6-BG. Cell viability was measured using the Cell Titer Glo assay after 3 days of incubation and IC50 values were determined (Table 3).

[4] = BBB permeability, cassette intravenous dosing; assay type: in vivo, male CD-1 mice; conditions: cassette IV 5 mg/kg; for concentration at 5 min: 10% DMSO in PBS
Description: BBB permeability of the compounds was tested in male CD-1@IGS mice using cassette intravenous dosing (Table 7 and FIGS. 6A and 6B). There were three animals in each group, given a dose of 5 mg/kg formulated in 10% DMSO in PBS (v/v) for 5 minutes. The endpoint was quantifying the parent compound using LC-MS/MS. Plasma samples (50 μl) were immediately mixed with 25 μl of H3PO4 (8.5%). Then 225 μl of internal standard (IS; 400 ng/ml meldonium in methanol) was added. After mixing by pipetting and centrifuging for 4 min at 6000 rpm, 2 μl of each supernatant was injected into LC-MS/MS system. Brain samples (100 mg±1 mg) were immediately mixed with 100 μl H3PO4 (25%) and zirconium oxide beads (115 mg±5 mg). Then 400 μl of IS solution was added and samples were disperse using a bullet blender homogenizer for 30 seconds at speed 8. The samples were centrifuged for 4 min at 14,000 rpm and 2 μl of each supernatant was injected into LC-MS/MS system.

[5] = Aqueous chemical stability (HPLC-MS); assay type: physicochemical
Description: Detection of products of non-enzymatic cleavage (AIC-TMZ, AIC-TP3, AIC-TP5, and AIC-TP9) was performed (Table 4; FIGS. 5A-5D).

[6] = Metabolic stability in mouse liver microsomes; assay type: in vitro ADME
Description: Metabolic stability of the compounds was also determined in mouse liver microsomes at five time points over 60 minutes, using HPLC-MS. Liver microsomes, as vesicles of the hepatocyte endoplasmic reticulum, contain membrane phase I enzymes namely CYPs, flavine-containing monooxygenases (FMO), esterases, amidases, and epoxide hydrolases, and also the phase II enzymes such as UGTs. For the catalytic activity of both phase I and II enzymes, addition of exogenous cofactors such as NADPH for CYPs and FMO, and UDPGA/alamethicin for UGTs is necessary.

[7] = system: U87; assay: cells; conditions: read-out: IC50, 72 h
Description: (§4) The effect of selected compounds on glioma cells viability was determined. The cells were plated at 2000 cells/well in 96 well plates. The day after, cells were treated with various concentrations of temozolomide or VMY-TP analogs.
(§5) Activity of TP-RGD was assessed in glioma cell cultures, as described in Example 11.

[8] = system: U251; assay: cells; conditions: read-out: IC50, 72 h
Description: as §4, §5

[9] = system: T98G; assay: cells
Description: as §4, §5

[10] = system: GBM8; assay: AlamarBlue cell viability, GBM8 patient-derived cell line; assay type: cell-based; conditions: 72 h, read-out: IC50, 72 h
Description: as §4

[11] = system: U251; conditions: read-out: IC50 U251 cell proliferation (BrdU ELISA); 72 hours of treatment
Description: U87 cells were seeded at the density of 2,000 cells/well in 96-well plates and incubated overnight. The day after, cells were treated with various concentrations of Temozolomide or analogs for 72 hours. The BrdU ELISA proliferation assay was performed according to the manufacturer's instructions (Roche, #11647229001). Briefly, 20 μl of diluted BrdU labelling reagent was added to each well, to a final concentration of 10 μM BrdU per well. The cells were then incubated at 37° C. for 24 hours. Following this incubation, the labeling medium was aspirated from each well and 200 μl of Roche FixDenat fixing buffer was added. The plates were then incubated at 25° C. for 30 minutes. The fixing solution was removed, and 100 μl of Anti-BrdU-POD antibody was added to each well and incubated again at 25° C. for 90 minutes. Wells were rinsed three times with 200 μl of PBS, then 100 μl of Roche Substrate solution was added to each well. Following a 25 minute incubation at room temperature, the absorbance of each plate was read at 370 nm (reference wavelength: approx. 492 nm) on a Spectramax® i3x microplate reader.
The effect on U251 cell proliferation after 72 hours of treatment was also assessed using the BrdU ELISA cell proliferation assay as described in Example 11.

[12] = system: P-glycoprotein (P-gp); assay: Bidirectional Caco-2 permeability / P-gp efflux assay; assay type: in vitro ADME; conditions: human; Caco-2 permeability; P-gp efflux ratio, Table 15
Description: as §1, §2, §3

[13] = system: A172; assay: cells; conditions: read-out: IC50, 72 h; A172, MGMT −, Table 14
Description: as §4, §5

[14] = for % decomp.: AIC formation, pH>7.4, 60° C.; for % SM: phosphate buffer pH>7.4, 60° C.
Description: 2 mg of TP-RGD was dissolved in 0.8 mL of phosphate buffer at pH>7.4. […] Then the reaction temperature was increased to 60° C. and incubated for 4 h. During the period of incubation, the reaction was monitored for every 30 min by LC-MS. Measure the AIC formation (% decomp) over the time.

C[C@H]1O[C@@H](O[C@H]2[C@@H](O)C[C@H](O[C@H]3[C@@H](O)C[C@H](O[C@H]4CC[C@@]5(C)[C@H](CC[C@@H]6[C@@H]5C[C@@H](O)[C@]5(C)[C@@H](C7=CC(=O)OC7)CC[C@]65O)C4)O[C@@H]3C)O[C@@H]2C)C[C@H](O)[C@@H]1O [Digoxin]
Papp A→B ([1]; Caco-2): 1.2 ×10⁻⁶ cm/s
Papp B→A ([1]; Caco-2): 15.8 ×10⁻⁶ cm/s
efflux ratio ([1]; Caco-2, Efflux Ratio BA/AB p-gp Inhibitor (−)): 13.6
Efflux Ratio BA/AB p-gp Inhibitor (+) [2]: 1.0
Papp (AB) p-gp Inhibitor (+) [2]: 5.9 10^−6 cm/s
Papp (BA) p-gp Inhibitor (+) [2]: 6.1 10^−6 cm/s

Cn1nnc2c(C(=O)NC3CCCCC3)ncn2c1=O [TP5, N-cyclohexyl-3-methyl-4-oxo-3,4-dihydroimidazo[5,1-d][1,2,3,5]tetrazine-8-carboxamide]
pIC50 ([3]; Homo sapiens, read-out: IC50 With O^6-BG pretreatment): 3.77
pIC50 ([3]; Homo sapiens, read-out: IC50 Without O^6-BG pretreatment): 3.39
efflux ratio ([1]; Caco-2, without verapamil, read-out: Efflux Ratio BA/AB p-gp Inhibitor (−)): 0.9
Papp A→B ([1]; Caco-2, without verapamil, read-out: Papp (AB) p-gp Inhibitor (−)): 26.6 ×10⁻⁶ cm/s
Papp B→A ([1]; Caco-2, without verapamil, read-out: Papp (BA) p-gp Inhibitor (−)): 24.3 ×10⁻⁶ cm/s
% Brain ([4]; 5 min): 25%
% Plasma ([4]; 5 min): 75%
concentration at 5 min ([4]; male, CD-1, mouse, brain, read-out: Brain Conc.): 3050 ng/g
Kp at 5 min ([4]; male, CD-1, mouse, brain/plasma): 0.99
concentration at 5 min ([4]; male, CD-1, mouse, plasma, read-out: Plasma Conc): 3120 ng/mL
half-life at 1 μM ([5]; 0.1 M phosphate buffer pH 7.0): > 2 h
half-life at 1 μM ([5]; 0.1 M phosphate buffer pH 8.0): 0.667 h
half-life at 1 μM ([5]; PBS pH 7.4): 1.15 h
Clearance Classification (Low <8.6; High >48) [6]: Moderate
microsomal CLint ([6]; mouse, liver microsomes, read-out: Intrinsic clearance (Clint)): 25 µL/min/mg
% remaining (1 h) With co-factors ([6]; with co-factors): 49%
% remaining (1 h) Without co-factors ([6]; without co-factors): 94%
pIC50 ([7]; Homo sapiens, U-87 MG, 72 h): 3.77
pIC50 ([8]; Homo sapiens, U-251, 72 h): 3.86
pIC50 ([9]; Homo sapiens, 72 h, read-out: IC50, 72 h): 3.24
pIC50 [10]: 4.55

Cn1nnc2c(C(=O)NCCCC[C@@H]3NC(=O)[C@@H](Cc4ccc(O)cc4)NC(=O)[C@H](CC(=O)O)NC(=O)CNC(=O)[C@H](CCCNC(=N)N)NC3=O)ncn2c1=O [TP-RGD]
pIC50 [11]: 4.15
efflux ratio [12]: 0.57
pIC50 ([7]; U87MG, MGMT −, Table 14): < 4.00
pIC50 ([8]; U251, MGMT −, Table 14): 6.51
pIC50 ([9]; read-out: IC50, 72 h, MGMT +++, Table 14): 6.60
pIC50 [13]: 6.42
% decomp. ([14]; 0.5 h): 0%
% decomp. ([14]; 1 h): 18.2%
% decomp. ([14]; 1.5 h): 33.9%
% decomp. ([14]; 2 h): 53.5%
% decomp. ([14]; 2.5 h): 56.8%
% decomp. ([14]; 3 h): 61.6%
% decomp. ([14]; 4 h): 94.7%
% decomp. ([14]; 4.5 h): 94.7%
% SM ([14]; 1 h): 81.8%
% SM ([14]; 1.5 h): 65.5%
% SM ([14]; 2 h): 45.9%
% SM ([14]; 2.5 h): 39.3%
% SM ([14]; 3 h): 27.4%
% SM ([14]; 4 h): 2.3%
% SM ([14]; 4.5 h): 2.3%
product formation (hydrolysis) ([14]; phosphate buffer pH>7.4, room temperature): no product formation

O[C@H]([C@H](O)[C@@H]1CO1)[C@H]1CO1 [VAL-083, reference compound]
pIC50 ([3]; 5-6 h pretreatment with 100 μM O6-BG, 3 days, read-out: IC50 With O^6-BG pretreatment): 4.15
pIC50 ([3]; 3 days, read-out: IC50 Without O^6-BG pretreatment): 3.97

CC[C@]1(O)C[C@@H]2CN(CCc3c([nH]c4ccccc34)[C@@](C(=O)OC)(c3cc4c(cc3OC)N(C)[C@H]3[C@@](O)(C(=O)OC)[C@H](OC(C)=O)[C@]5(CC)C=CCN6CC[C@]43[C@@H]65)C2)C1 [Vinblastine]
efflux ratio ([1]; Caco-2, Efflux Ratio): 21.7
